# Laboratory results as given in publication PMC6150242, “Design, Synthesis and Anticancer Evaluation of Fangchinoline Derivatives” (Molecules : A Journal of Synthetic Chemistry and Natural …, 2017).
# pIC50: −log10 of the molar value. Like-named read-outs stand apart in the source and are kept apart here.
# Experiments:
# [1] = system: human leukaemia HEL cell line; test: MTT in vitro cytotoxicity assay, HEL; assay type: cell-based; conditions: read-out: IC50 (µM) HEL
# Description: (§1) As summarized in Table 1, five cancer cell lines, including MDA-MB-231, PC3, WM9, HEL and K562 cell lines, were induced for testing the anti-cancer activities of those derivatives. The first line anti-cancer drug, vincristine, was treated as positive control. All the test compounds were dissolved in DMSO. The preliminary structure-activity relationship of all compounds against the 5 cancer cell lines was also investigated.
# (§2) Human erythroleukemic cell lines HEL and K562, human breast cell lines MDA-MB-231, human prostate cell lines PC3 and human melanoma cell lines WM9 were cultured in RPMI (HEL and K562) or DMEM (MDA-MB-231, PC3, WM9) medium (high glucose) supplemented with 5% FBS (HyClone, GE Healthcare, Parramatta, Australia) and 1% ampicillin/streptomycin.
# (§3) Cells were cultured in 96-well plates at densities of 1 × 10^5/well. The plates were pre-incubated at 37 °C for 24 h to allow adaptation of cells prior to the addition of the test compounds. Then, compounds were added to cells in triplicate in several doses, and incubated for an additional 2 days. The 50% inhibitory concentrations (IC50) were measured for fangchinoline derivatives using MTT (diphenyltetrazolium bromide) assay.
# [2] = system: human prostate cancer PC3 cell line; test: MTT in vitro cytotoxicity assay, PC3; assay type: cell-based; conditions: read-out: IC50 (µM) PC3
# Description: as §1, §2, §3
# [3] = system: human melanoma WM9 cell line; test: MTT in vitro cytotoxicity assay, WM9; assay type: cell-based; conditions: for IC50: Homo sapiens, read-out: IC50 (µM) WM9
# Description: as §1, §2, §3
# [4] = system: human leukaemia K562 cell line; test: MTT in vitro cytotoxicity assay, K562; assay type: cell-based; conditions: read-out: IC50 (µM) K562
# Description: as §1, §2, §3
# [5] = system: human breast cancer MDA-MB-231 cell line; test: MTT in vitro cytotoxicity assay, MDA-MB-231; assay type: cell-based; conditions: read-out: IC50 (µM) MDA-MB-231
# Description: as §1, §2, §3
# [6] = Toxicity on normal human liver cell line; assay type: cell-based; conditions: HL7702 normal liver cells; normal human liver cell line HL7702; read-out: IC50 against HL7702 cell growth
# Description: (§4) 3 fangchinoline derivatives were also tested for their toxicities on normal human liver cell line HL7702.
# as §3
# [7] = system: normal human liver cell line HL7702; test: Toxicity on normal human liver cell line; assay type: cell-based; conditions: HL7702 versus cancer cell lines
# Description: as §4, §3
# WM9 cells = test: Annexin V-FITC/PI flow cytometry apoptosis assay; assay type: cell-based, human; conditions: 2.5 µM, 24 h
# Description: The Annexin V-FITC-A/PI apoptosis detection kit was induced to test the further role of compound 4g in inhibiting WM9 cell death (Figure 2). Before undergoing the flow cytometry, the WM9 cells were treated with 0 and 2.5 µM compound 4g for 24 h, and then Annexin V-FITC and PI were put into use.
# For apoptosis analysis, WM9 cells were incubated with compounds or DMSO as a vehicle control for 24 h. Cells were then washed with cold PBS, stained with Annexin V-FITC and Propidium Iodide (PI) using apoptosis detection Kit (BD Biosciences, Bergen, NJ, USA).
# Figure 2 Compound 4g induced apoptosis in WM9 cells. WM9 cells were stained with Annexin V-FITC and PI by incubating at room temperature for 15 min after treated cells with 2.5 µM 4g for 24 h. Finally, apoptosis analysis was carried out by flow cytometry. TEXT PRINTED IN THE PICTURE: Y-37: WM9 24h: Q4-UL 1.2% (2.5 μM); WM9 24h: Q4-UR 8.8% (2.5 μM); WM9 24h: Q4-LL 74.2% (2.5 μM); WM9 24h: Q4-LR 15.8% (2.5 μM) DOUBTS OF THE COPYIST ABOUT THIS PICTURE: Y-37, Q4-UR: 8.8% or 6.8%; the first digit is partly hidden by plotted points / The Control plot also prints quadrant percentages (Q4-UL 0.7%, Q4-UR 0.0%, Q4-LL 98.9%, Q4-LR 0.3%). They are not listed because Control is not a substance.
# Bcl-xl = test: Western blot of apoptosis indicators, Bcl-xl; assay type: cell-based, human; conditions: WM9 cells, 2.5 µM, 24 h
# Description: (§5) Western blot analysis was induced to elucidate the effect of compound 4g on protein levels to further expatiate how compound 4g induces apoptosis in WM9 cells (Figure 3). The Bcl-xl, Bcl-2 and Survivin display repressor activities in cell death.
# (§6) The total protein was collected from WM9 cells using RIPA lysis buffer, and separated on 10% SDS Page, as described. The protein was then transferred to polyvinylidene fluoride (PVDF, 0.2 µm) membrane, and blocked by 5% BSA solution for 2 h at room temperature. The membrane was then incubated with specific primary antibodies overnight at 4 °C, followed by incubation with corresponding HRP-conjugated secondary antibodies for 2 h at room temperature. Expression of particular proteins was measured by applying ECL select substrate (Li-Cor, Lincoln, NE, USA). Polyclonal rabbit antibody for Bcl-2 was obtained from Abcam (Abcam, Cambridge, UK); Bcl-xl, Survivin, Casepase-3 and PARP antibodies from Cell Signalling Technology (CST, Danvers, MA, USA) and GAPDH from Goodhere Biotechnology (Hangzhou, Zhejiang, China).
# (§7) Figure 3 Fangchinoline derivative 4g affects the protein levels of the apoptotic genes in WM9 cell line. […] WM9 cells were treated with 2.5 μM 4g for 24 h.
# Survivin = test: Western blot of apoptosis indicators, Survivin; assay type: cell-based, human; conditions: WM9 cells, 2.5 µM, 24 h
# Description: as §5, §6, §7
# Bcl-2 = test: Western blot of apoptosis indicators, Bcl-2; assay type: cell-based, human; conditions: WM9 cells, 2.5 µM, 24 h
# Description: as §5, §6, §7
# Caspase-3 = test: Western blot of apoptosis indicators, Caspase-3; assay type: cell-based, human; conditions: WM9 cells, 2.5 µM, 24 h
# Description: as §5, §6, §7
# PARP = test: Western blot of apoptosis indicators, PARP; assay type: cell-based, human; conditions: WM9 cells, 2.5 µM, 24 h
# Description: as §5, §6, §7
# [8] = system: human hepatocellular carcinoma cell line HepG2; design: method as in PMID 21418191; conditions: autophagy induction at relatively low concentrations; cited from earlier work
# [9] = system: human hepatocellular carcinoma cell line PLC/PRF/5; design: method as in PMID 21418191; conditions: autophagy induction at relatively low concentrations; cited from earlier work
# [10] = MTT assay after 48 h of treatment, averaged from at least 3 independent experiments, variation ±10%
# [11] = PC-3, MTT assay after 48 h of treatment, averaged from at least 3 independent experiments, variation ±10%
# [12] = WM9, MTT assay after 48 h of treatment, averaged from at least 3 independent experiments, variation ±10%
# [13] = K562, MTT assay after 48 h of treatment, averaged from at least 3 independent experiments, variation ±10%
# [14] = MDA-MB-231, MTT assay after 48 h of treatment, averaged from at least 3 independent experiments, variation ±10%
Structure (SMILES),"IC50 [1, 10] [µM]","IC50 [2, 11] [µM]","IC50 [3, 12] [µM]","IC50 [4, 13] [µM]","IC50 [5, 14] [µM]",other results
"COc1ccc2cc1Oc1ccc(cc1)C[C@H]1c3cc(c(OC)cc3CCN1C)Oc1c(OS(=O)(=O)c3ccc(C)cc3)c(OC)cc3c1[C@H](C2)N(C)CC3 [Compound 3b, 7-O-Tosyl-fangchinoline]",2.95,3.59,3.95,3.85,4.61,–
"COc1cc(Br)c2cc1Oc1ccc(cc1)C[C@H]1c3cc(c(OC)cc3CCN1C)Oc1c(OC(=O)c3ccccc3)c(OC)c(Br)c3c1[C@H](C2)N(C)CC3 [Compound 4a, 7-O-Benzoyl-5,14-dibromo-fangchinoline]",2.65,4.22,2.51,2.45,4.12,–
"COc1ccc2cc1Oc1ccc(cc1)C[C@H]1c3cc(c(OC)cc3CCN1C)Oc1c(OCc3ccccc3)c(OC)cc3c1[C@H](C2)N(C)CC3 [Compound 1a, 7-O-Benzyl-fangchinoline]",4.42,3.65,3.44,4.75,5.13,–
"COc1cc(Cl)c2cc1Oc1ccc(cc1)C[C@H]1c3cc(c(OC)cc3CCN1C)Oc1c(OC(=O)c3ccccc3)c(OC)c(Cl)c3c1[C@H](C2)N(C)CC3 [Compound 4b, 7-O-Benzoyl-5,14-dichloro-fangchinoline]",5.11,3.85,3.54,3.16,7.22,–
"COc1cc([N+](=O)[O-])c2cc1Oc1ccc(cc1)C[C@H]1c3cc(c(OC)cc3CCN1C)Oc1c(OC(=O)c3ccccc3)c(OC)cc3c1[C@H](C2)N(C)CC3 [Compound 4g, 7-O-Benzoyl-14-nitro-fangchinoline]",1.98,2.03,1.07,2.09,2.92,times more active than first stage derivative 3i on WM9 ([3]; WM9 IC50 ratio versus 3i): 2.5 times; times more active than fangchinoline on WM9 ([3]; WM9 IC50 ratio versus fangchinoline): 12.2 times; times more active than vincristine on WM9 ([3]; WM9 IC50 ratio versus vincristine): 9.8 times; IC50 at 2 days [6]: 5 µM; fold lower toxicity on HL7702 than inhibition on cancer cell lines [7]: ~5 fold; WM9 cells in the early apoptosis state (WM9 cells; control 0.0%): 8.8%; WM9 cells in the late apoptosis state (WM9 cells; control 0.3%): 15.8%; Bcl-xl expression (Western blot) (Bcl-xl): inhibited; Survivin expression (Western blot) (Survivin): inhibited; Bcl-2 expression (Western blot) (Bcl-2): inhibited; Pro-Caspase-3 / Cleaved-Caspase-3 (Western blot) (Caspase-3): activation of executioner from Pro-Caspase-3 to Cleaved-Caspase-3; full-length PARP level (Western blot) (PARP): down-regulation of full-length PARP
"CC[C@]1(O)C[C@H]2CN(CCc3c([nH]c4ccccc34)[C@@](C(=O)OC)(c3cc4c(cc3OC)N(C=O)[C@H]3[C@@](O)(C(=O)OC)[C@H](OC(C)=O)[C@]5(CC)C=CCN6CC[C@]43[C@@H]65)C2)C1 [Vincristine, reference compound]",6.38,5.36,10.6,5.62,13.1,–
"COc1ccc2cc1Oc1ccc(cc1)C[C@H]1c3cc(c(OC)cc3CCN1C)Oc1c(OC(C)=O)c(OC)cc3c1[C@H](C2)N(C)CC3 [Compound 3a, 7-O-Acetyl-fangchinoline]",2.75,3.01,2.65,6.99,6.67,–
"COc1cc([N+](=O)[O-])c2cc1Oc1ccc(cc1)C[C@H]1c3cc(c(OC)cc3CCN1C)Oc1c(OCc3ccccc3)c(OC)cc3c1[C@H](C2)N(C)CC3 [Compound 2a, 7-Benzyl-14-nitro-fangchinoline]",8.96,3.69,3.04,8.33,8.6,IC50 at 2 days [6]: 5.6 µM
"COc1ccc2cc1Oc1ccc(cc1)C[C@H]1c3cc(c(OC)cc3CCN1C)Oc1c(OC(=O)c3ccco3)c(OC)cc3c1[C@H](C2)N(C)CC3 [Compound 3g, 7-O-(Furan-m-formyl)-fangchinoline]",4.04,4.33,3.13,6.39,6.02,IC50 at 2 days [6]: 17.3 µM; fold lower toxicity on HL7702 than inhibition on cancer cell lines [7]: ~3 fold
COc1ccc2cc1Oc1ccc(cc1)C[C@H]1c3cc(c(OC)cc3CCN1C)Oc1c(O)c(OC)cc3c1[C@H](C2)N(C)CC3 [Fangchinoline],–,–,–,–,–,"IC50 ([1]; 48 h): 8.95 µM; IC50 ([2]; PC-3, 48 h): 11.1 µM; IC50 ([3]; WM9, 48 h): 13.1 µM; IC50 ([4]; K562, 48 h): 10.3 µM; IC50 ([5]; MDA-MB-231, 48 h): 12.3 µM; pIC50 [8]: ~5.30; pIC50 [9]: ~5.30"
"COc1ccc2cc1Oc1ccc(cc1)C[C@H]1c3cc(c(OC)cc3CCN1C)Oc1c(OCC=C(C)C)c(OC)cc3c1[C@H](C2)N(C)CC3 [Compound 1b, 7-O-(3-Methylbut-1-ene)-fangchinoline]",4.01,7.22,5.56,6.6,4.44,–
"COc1ccc2cc1Oc1ccc(cc1)C[C@H]1c3cc(c(OC)cc3CCN1C)Oc1c(OC(=O)c3ccccc3)c(OC)cc3c1[C@H](C2)N(C)CC3 [Compound 3i, 7-O-Benzoyl-fangchinoline]",2.04,4.57,2.73,2.86,3.46,–
"COc1ccc2cc1Oc1ccc(cc1)C[C@H]1c3cc(c(OC)cc3CCN1C)Oc1c(OS(=O)(=O)c3ccccc3[N+](=O)[O-])c(OC)cc3c1[C@H](C2)N(C)CC3 [Compound 3c, 7-O-(o-Nirtobenzessulfonyl)-fangchinoline]",6.82,4.76,3.58,4.06,8.7,–
"C=CCOc1c(OC)cc2c3c1Oc1cc4c(cc1OC)CCN(C)[C@H]4Cc1ccc(cc1)Oc1cc(ccc1OC)C[C@@H]3N(C)CC2 [Compound 1c, 7-O-(Prop-1-ene)-fangchinoline]",4.72,4.75,3.05,6.78,5.04,–
